The term pIC50 denotes the negative decadic logarithm of the IC50, by convention in mol/L.

This is an account of results in ChEMBL document CHEMBL6153107, “Derailment of the Biosynthesis via an Acid-Mediated Intramolecular Cyclo-rearrangement Leads to a Novel Cytochalasin Skeleton” (J Nat Prod, 2025).

The test system of assay [1] is HeLa. Kind of assay: Binding affinity to F-actin in human HeLa cells assessed as disruption of cytoskeleton organization by measuring transforming regular fibrous into punctuate structure at 12.3 uM incubated for 48 hrs by tetramethylrhodamine-phalloidin staining based confocal laser scanning microscopy. In kind it is cell-based.
For assay [2], the system named is HeLa. Briefly: Cytotoxicity against human HeLa cells assessed as inhibition of cell growth incubated for 48 hrs by DAPI staining based high-content imaging analysis. In kind it is functional.
The subject of assay [3] is RKO. Briefly: Cytotoxicity against human RKO cells assessed as inhibition of cell growth incubated for 48 hrs by DAPI staining based high-content imaging analysis. In kind it is functional.
Assay [4] concerns HeLa. Briefly: Induction of cell cycle arrest in human HeLa cells assessed as accumulation of cells G2/M phase incubated for 48 hrs by DAPI staining based high-content imaging analysis. The format is functional.
For assay [5], the system named is RKO. Briefly: Induction of cell cycle arrest in human RKO cells assessed as accumulation of cells at G2/M phase incubated for 48 hrs by DAPI staining based high-content imaging analysis. In kind it is functional.
Assay [6] has as its system RKO. Briefly: Binding affinity to F-actin in human RKO cells assessed as disruption of cytoskeleton organization by measuring transforming regular fibrous into punctuate structure at 11.1 uM incubated for 48 hrs by tetramethylrhodamine-phalloidin staining based confocal laser scanning microscopy. The format is cell-based.
For assay [7], the system named is RKO. Kind of assay: Binding affinity to F-actin in human RKO cells assessed as disruption of cytoskeleton organization by measuring transforming regular fibrous into punctuate structure at 1.6 uM incubated for 48 hrs by tetramethylrhodamine-phalloidin staining based confocal laser scanning microscopy. The format is cell-based.
The subject of assay [8] is HeLa. Briefly: Binding affinity to F-actin in human HeLa cells assessed as disruption of cytoskeleton organization by measuring transforming regular fibrous into punctuate structure at 2 uM incubated for 48 hrs by tetramethylrhodamine-phalloidin staining based confocal laser scanning microscopy. In kind it is cell-based.
The subject of assay [9] is HeLa. Briefly: Binding affinity to F-actin in human HeLa cells assessed as disruption of cytoskeleton organization by measuring transforming regular fibrous into punctuate structure at 50 uM incubated for 48 hrs by tetramethylrhodamine-phalloidin staining based confocal laser scanning microscopy. The format is cell-based.
Assay [10] concerns RKO. Briefly: Binding affinity to F-actin in human RKO cells assessed as disruption of cytoskeleton organization by measuring transforming regular fibrous into punctuate structure at 50 uM incubated for 48 hrs by tetramethylrhodamine-phalloidin staining based confocal laser scanning microscopy. In kind it is cell-based.
Assay [11] deals with RKO. Briefly: Binding affinity to F-actin in human RKO cells assessed as disruption of cytoskeleton organization by measuring transforming regular fibrous into punctuate structure at 33.5 uM incubated for 48 hrs by tetramethylrhodamine-phalloidin staining based confocal laser scanning microscopy. In kind it is cell-based.
Assay [12] concerns HeLa. Kind of assay: Binding affinity to F-actin in human HeLa cells assessed as disruption of cytoskeleton organization by measuring transforming regular fibrous into punctuate structure at 27.8 uM incubated for 48 hrs by tetramethylrhodamine-phalloidin staining based confocal laser scanning microscopy. In kind it is cell-based.
The test system of assay [13] is RKO. Kind of assay: Binding affinity to F-actin in human RKO cells assessed as disruption of cytoskeleton organization by measuring transforming regular fibrous into punctuate structure at 16.7 uM incubated for 48 hrs by tetramethylrhodamine-phalloidin staining based confocal laser scanning microscopy. The format is cell-based.
Assay [14] deals with HeLa. Kind of assay: Binding affinity to F-actin in human HeLa cells assessed as disruption of cytoskeleton organization by measuring transforming regular fibrous into punctuate structure at 0.9 uM incubated for 48 hrs by tetramethylrhodamine-phalloidin staining based confocal laser scanning microscopy. The format is cell-based.
For assay [15], the system named is RKO. Briefly: Binding affinity to F-actin in human RKO cells assessed as disruption of cytoskeleton organization by measuring transforming regular fibrous into punctuate structure at 0.8 uM incubated for 48 hrs by tetramethylrhodamine-phalloidin staining based confocal laser scanning microscopy. The format is cell-based.

The structures appear in SMILES notation. pIC50: −log10 of the molar value. Active and inactive are the calls of the source. No cut-off for these calls is given here.

Turning to `CC(=O)O[C@@H]1/C=C/[C@](C)(O)C[C@@H](C)C/C=C/[C@H]2C=C(C)[C@@H](C)[C@H]3[C@H](Cc4ccccc4)NC(=O)[C@]321`, the outcome in the assay on HeLa [1] and in the assay on RKO [6] was Active. For the same molecule, the pIC50 in the assay on HeLa [2] is 4.91; in the assay on RKO [3], 4.95. Also, the Activity result in the assay with HeLa [4] and in the assay on RKO [5] was “Dose-dependent-effect” each time.
In the case of `CC1=C[C@@H]2/C=C/C[C@H](C)C[C@@](C)(O)/C=C/C(=O)[C@]23C(=O)N[C@@H](Cc2ccccc2)[C@@H]3[C@@H]1C`, the negative logarithm of the IC50 (pIC50) in the assay with HeLa [2] is 5.70; in the assay on RKO [3], 5.80. For the same molecule, the Activity entry in the assay on HeLa [4] and in the assay on RKO [5] was “Dose-dependent-effect” throughout. The outcome in the assay on RKO [7] and in the assay with HeLa [8] was Active.
As for `CC1=C[C@@H]2[C@@H](C[C@H](C)C1)[C@@H](O)[C@H]1C=C(C)[C@@H](C)[C@H]3[C@H](Cc4ccccc4)NC(=O)[C@]31[C@@H]2O`, the outcome in the assay on HeLa [9] and in the assay with RKO [10] was Active. Besides, the negative-log IC50 (pIC50) with HeLa [2] was < 4.30; in the assay on RKO [3], 4.33. For the same molecule, the Activity entry with HeLa [4] and in the assay on RKO [5] was “Dose-dependent-effect” in each case.
As for `CC1=C[C@@H]2/C=C/C[C@H](C)C[C@@](C)(O)/C=C/[C@@H](O)[C@]23C(=O)N[C@@H](Cc2ccccc2)[C@@H]3[C@@H]1C`, the result in the assay on HeLa [9] and with RKO [11] was Active. Besides, the negative-log IC50 (pIC50) in the assay on HeLa [2] is < 4.30; in the assay on RKO [3], 4.47. For the same molecule, the Activity entry in the assay on HeLa [4] and in the assay with RKO [5] was “Dose-dependent-effect” each time.
As to `CC1=C[C@H]2[C@H]3OC(=O)[C@@]24C(=N[C@@H](Cc2ccccc2)[C@@H]4[C@@H]1C)C[C@H]1[C@H]3C[C@H](C)C[C@@]1(C)O`, the result in the assay with HeLa [12] and in the assay with RKO [13] was Active. Further, the pIC50 in the assay on HeLa [2] is 4.56; in the assay with RKO [3], 4.78. Besides, the Activity result in the assay on HeLa [4] and with RKO [5] was “Dose-dependent-effect” in each case.
As to `C=C1[C@@H](C)[C@H]2[C@H](Cc3ccccc3)NC(=O)[C@]23[C@H](OC(C)=O)/C=C/[C@](C)(O)C[C@@H](C)C/C=C/[C@H]3[C@@H]1O`, the result in the assay on HeLa [14] and in the assay with RKO [15] was Active. Besides, the results for the pIC50 with HeLa [2] and with RKO [3] were 6.05 and 6.10, respectively. Further, the Activity result in the assay on HeLa [4] and in the assay with RKO [5] was “Dose-dependent-effect” throughout.
Take `CC1=C[C@@H]2[C@@H]3[C@H](/C=C(/C)C[C@@H](C)C[C@H]3O)[C@@H](O)[C@]23C(=O)N[C@@H](Cc2ccccc2)[C@@H]3[C@@H]1C`: the result with HeLa [9] and with RKO [10] was Active. For the same molecule, the pIC50 in the assay on HeLa [2] was < 4.30; with RKO [3], 4.34. Besides, the Activity entry with HeLa [4] and in the assay with RKO [5] was “Dose-dependent-effect” in each case.
